What was measured:
[1] = test system: PFK-1; assay: PFK-1 kinase activity; assay type: biochemical; conditions: 10 μM
[2] = test system: LLC xenografts; assay: Ki67 immunohistochemistry of tumors; assay type: in vivo, C57BL/6 mice; conditions: 120 mg/kg by gavage daily, ten days
Protocol: Formalin-fixed, paraffin-embedded tissue sections were processed as previously described then incubated with anti-Ki-67 primary antibody (Abcam) overnight, followed by HRP-linked goat anti-rabbit secondary antibody (1:300, Pierce). Sections were developed with 3,3′-diaminobenzidine tetrahydrochloride, counterstained, scanned and analyzed with the positive pixel count algorithm as previously described. Data are depicted as % positive pixels/total pixels±SD.

[3] = pharmacokinetic profile after IV and oral administration; assay type: in vivo; conditions: C57BL/6 mice
Protocol: The pharmacokinetic profile was determined in female C57BL/6 mice following IV and oral administration of 5MPN. Using only female mice lowered the animal numbers required for meaningful results without issues of potential gender differences in exposure. Eight time points (n=3/time point) were used to determine PK parameters calculated using WinNonLin v5.0. Plasma samples were extracted using acetonitrile and analyzed by LC/MS-MS using a PhenomexSynergi Polar-RP 4 micron 50×2.0 mm column eluted with a biphasic mobile phase (0.5% formic acid in acetonitrile and water).

[4] = test system: MDA-MB-231; assay: proliferation, viable cell count; assay type: cell-based, human; conditions: MDA-MB-231, over 48 hours
Description: (§1) H460, H1299, H441, H522 and A549 non-small cell lung cancer (NSCLC), MDA-MB-231 (breast), LNCaP (prostatic) and HCT116 (colon) adenocarcinoma and Lewis lung carcinoma (LLC) cell lines were obtained from ATCC and used within 6 months of acquisition. PFKFB4^−/− ear pinna fibroblasts isolated from TamCre/loxP/PFKFB4^−/− mice were immortalized as described previously (Chesney J et al. Fructose-2,6-bisphosphate synthesis by 6-phosphofructo-2-kinase/fructose-2,6-bisphosphatase 4 (PFKFB4) is required for the glycolytic response to hypoxia and tumor growth. Oncotarget 2014 Aug. 30; 5(16):6670-86). Normal bronchial epithelial cells (NHBE) were obtained from Lonza and NHBE cells expressing telomerase, SV40 large T antigen and activated Ras (hT/LT/Ras) were a gift from Dr. B. J. Rollins, Dana Farber Cancer Institute. All cell lines were tested and found negative for mycoplasma (PCR Mycoplasma Detection Kit, ABM). Cell lines were grown in DMEM (A549, LNCaP, MDA-MB-231, LLC and PFKFB4^−/−), RPMI 1640 (H460, H1299, H441, H522) and McCoy's 5A media (HCT116) (all from Invitrogen) containing 10% fetal calf serum (Hyclone). NHBE and hT/LT/Ras cells were grown in BEGM containing SingleQuots (Lonza). All lines were cultured at 37° C. in 5% CO2. In certain experiments, 4-hydroxytamoxifen (4HT, Sigma-Aldrich) was added to PFKFB4^−/− fibroblasts at indicated concentrations.
(§2) Cells were incubated in 20% trypan blue (Sigma) for 5 minutes. Cells excluding trypan blue were counted using a standard hemocytometer (Hausser Scientific) to determine total numbers of viable cells. Data are expressed as mean±SD of three experiments.

[5] = test system: HCT116; assay: proliferation, viable cell count; assay type: cell-based, human; conditions: HCT116, over 48 hours
Description: as §1, §2

[6] = test system: LNCaP; assay: proliferation, viable cell count; assay type: cell-based, human; conditions: over 48 hours
Description: as §1, §2

[7] = test system: H1299; assay: proliferation, viable cell count; assay type: cell-based, human; conditions: H1299, over 48 hours
Description: as §1, §2

[8] = test system: H441; assay: proliferation, viable cell count; assay type: cell-based, human; conditions: H441, over 48 hours
Description: as §1, §2

[9] = test system: H522; assay: proliferation, viable cell count; assay type: cell-based, human; conditions: H522, over 48 hours
Description: as §1, §2

[10] = test system: panel of 97 protein kinases; assay: KINOMEscan active-site dependent competition binding assay; conditions: 10 μM; data not shown
Protocol: The fructose-6-phosphate kinase activity of human recombinant PFKFB4 in the presence of DMSO±indicated 5MPN concentrations was assayed as previously described. The activity of 5MPN against 97 kinases was examined using a commercially available active-site dependent competition binding assay core service (KINOMEscanEDGE) that quantifies the capacity of test agents to compete with an immobilized, active-site directed ligand using a DNA-tagged kinase and immobilized ligand and compound. For example, enzyme inhibition was studied using an ADP-Glo assay. The effect of MPN-2 on the activity of recombinant human PFKFB4 enzyme was examined in an ADP-Glo assay (Promega), which measures ADP formed from a kinase reaction. ADP is converted into ATP, which is converted into light by a luciferase. PFKFB4 protein was exposed to MPN-2 at indicated concentrations in the presence of ATP and fructose-6-phosphate and following manufacturer's instructions, ADP-Glo and kinase detections reagents were added. The data are shown as the decrease in luminescence caused by MPN-2 relative to DMSO.

[11] = test system: cancer cells; assay: glycolysis assay (3H2O from 5-[3H]glucose); assay type: cell-based; conditions: increasing concentrations
Protocol: Method: To examine glycolysis, cells growing in 6-well plates were incubated in 500 μl of complete medium containing 1 μCi of 5-[^3H] glucose per well for 60 min in 5% CO2 at 37° C. The medium was then collected and centrifuged to pellet any suspended cells. To separate the ^3H2O formed via glycolysis from the 5-[^3H]glucose added to the medium, an evaporation technique in a sealed system was utilized. Briefly, 150 μl aliquots of medium were added to open tubes that were placed upright inside scintillation vials containing 1 ml of H2O. The scintillation vials were sealed, and the ^3H2O produced by glycolysis through enolase and released to the medium was allowed to equilibrate with the H2O in the outer vial for 48 h at 37° C. The amounts of ^3H2O that had diffused into the surrounding H2O was measured on a Tri-Carb 2910 liquid scintillation analyzer (Perkin Elmer) and compared with ^3H2O and 5-[^3H]glucose standards. Protein concentration was determined using the BCA assay and counts were normalized to protein concentration (previously described in CHESNEY et al., “Fructose-2,6-bisphosphate synthesis by 6-phosphofructo-2-kinase/fructose-2,6-bisphosphatase 4 (PFKFB4) is required for the glycolytic response to hypoxia and tumor growth” Oncotarget (2014) Vol. 5, No. 16, pp. 6670-6686, which is herein incorporated by reference in its entirety).

[12] = test system: cancer cells; assay: intracellular ATP measurement; assay type: cell-based; conditions: increasing concentrations
Protocol: Method: To measure ATP, cells were washed (while still adherent) with cold PBS, lysed with Passive Lysis Buffer (Molecular Probes, Invitrogen) added directly to the plates, and immediately harvested by scraping. The lysates were flash frozen (to −80° C.) and thawed (to 37° C.) once to accomplish complete lysis and then centrifuged to clear the lysates. Intracellular ATP levels were determined using a bioluminescence assay (Molecular Probes), utilizing luciferase and its substrate, D-luciferin and ATP values were calculated using an ATP standard curve. The ATP concentration was normalized to protein concentration that was estimated using the BCA assay.

Compound	inhibition of kinase activity [1]	Ki67-positive cells [2]	oral bioavailability [3]	concentrations reached by intravenous and oral administration ([3]; IV and oral, administered daily)	growth [4]	growth [5]	growth [6]	growth [7]	growth [8]	growth [9]	inhibition of a panel of 97 protein kinases [10]	glycolysis (production of 3H2O relative to DMSO) [11]	production of ATP [12]
COc1cccc2c(NCCCCCO[N+](=O)[O-])ccnc12 [5MPN, 5-[(8-methoxyquinolin-4-yl)amino]pentyl nitrate]	did not inhibit	reduction in Ki67-positive cells	has oral bioavailability	adequate to achieve potentially therapeutic concentrations	dose-dependent reduction in growth	dose-dependent reduction in growth	dose-dependent reduction in growth	dose-dependent reduction in growth	dose-dependent reduction in growth	dose-dependent reduction in growth	not inhibited		
COc1cccc2c(NCCCCCNC(=O)C(F)(F)F)ccnc12 [Formula (VIII), 2,2,2-trifluoro-N-(5-((8-methoxyquinolin-4-yl)amino)pentyl)acetamide]												dose-dependent decrease	dose-dependent decrease
